Experimental data taken from patent US10662218B2, “Analogs of celastrol” (ERX Pharmaceuticals, Inc., priority 2015, dated 2020).
In brackets after ≈: the same amount, converted by molar mass. Several values for one entry are separate records, joined by “and”; a condition that tells them apart may be missing. Equal entries are not always repeated. Entries after “also recorded” stand apart in the source; their conditions may differ. Where two headings read alike, the source gives them in different places.

What was measured:
[1] = system: C57BL/6 Diet Induced Obese (DIO) mice; test: Oral (P.O.) administration study in DIO mice: in vivo activity, body weights; set-up: species or system mouse; conditions: for area under the curve (AUC) for cumulative body weight change / area under the curve (AUC) for daily body weight change / cumulative body weight change: 2 mg/kg oral gavage once daily for 10 days, compared with controls; for Individual Body Weight, PRED 11: pre-dose phase day 11 (baseline); for Individual Body Weight, PRED 12: pre-dose phase day 12 (baseline); for Individual Body Weight, PRED 13: pre-dose phase day 13 (baseline); for Individual Body Weight, PRED 14: pre-dose phase day 14 (baseline); for Individual Body Weight, DSNG 1: dosing phase day 1; for Individual Body Weight, DSNG 2: dosing phase day 2; for Individual Body Weight: individual male animals; for Body weight, Mean / change in vivo at 2 mg/kg: male; for change in vivo at 2 mg/kg: Mus musculus, po, read-out: Body weight, %-Diff
How it was run: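 Male C57BL/6 DIO mice (21-22 weeks, 29.8-40.1 g) were gavage-acclimated with vehicle, then dosed orally once daily for 10 days at 2 mL/kg. Body weight was recorded daily before dosing. Cumulative change and AUC were analysed by one-way ANOVA with Dunnett's test.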

[2] = system: C57BL/6 Diet Induced Obese (DIO) mice; test: Oral (P.O.) administration study in DIO mice: food consumption; format: in vivo, mouse; conditions: 2 mg/kg oral gavage once daily for 10 days, compared with controls
Description: (§1) Dose formulations were administered by oral gavage once daily for 10 days at a dose volume of 2 mL/kg. Doses were based on the most recently recorded scheduled body weight.
A quantitative assessment of food consumption was recorded daily on Days 11 through 14 of the predose phase and daily prior to dosing during the dosing phase.
(§2) Descriptive statistics (n, mean, standard error of the mean, standard deviation) were completed. Additionally, one-way analysis of variance followed by Dunnett's post-hoc test were performed on body weight (cumulative body weight change), glucose (glucose percent change), and food consumption (cumulative food consumption). Area under the curve (for body weight, cumulative body weight change, daily body weight change, and food consumption) was computed for treatment groups. An appropriate comparison test, such as one-way analysis of variance and Dunnett's, was performed on the group means for the area under the curve computations. Any additional statistical analysis and interpretation of the results were the responsibility of the sponsor.

[3] = system: C57BL/6 Diet Induced Obese (DIO) mice; test: Oral (P.O.) administration study in DIO mice: blood glucose level after 6 hours of fasting; format: in vivo, mouse; conditions: 2 mg/kg oral gavage once daily for 10 days, compared with controls
Description: as §1
Blood for blood glucose was collected from all animals via tail clip on Day 14 of the predose phase, and Day 11 of the dosing phase after 6 hours of fasting. A drop of blood from each animal was placed onto two different Accu-Chek® Aviva glucometers to assess glucose values. A third value was taken, if necessary.
as §2

[4] = Compound solubility in PBS (pH 7.4), LC-MS/MS; conditions: PBS (pH 7.4), pH 7.4, aqueous buffer, kinetic from dmso stock, Solubility (μM) Mean, Table 6-C, test concentration 100 μM (1% of DMSO), shaken (1000 rpm) 1 h at room temperature, n = 2
Description: • Test concentration: 100 μM (1% of DMSO) • Test systems: PBS (pH 7.4) • Incubation condition: shaken (1000 rpm) for 1 h at room temperature • Sample size: Duplicates (n=2) • Bioanalytical method: LC-MS/MS

[5] = system: C57BL/6 Diet Induced Obese (DIO) mice; test: Oral (P.O.) administration study in DIO mice: animal fate (mortality) and clinical observations; conditions: individual male DIO mouse, 2 mg/kg; phase of fate Dosing, phase week 2, phase day 11
How it was run: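 Male C57BL/6 DIO mice received 2 mg/kg of each compound by oral gavage once daily for 10 days; vehicle was 1% methyl cellulose in citric acid/phosphate buffer. Mortality and clinical signs recorded alongside body weight, food intake and blood glucose; animals sacrificed Day 11.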

[6] = in vivo
[7] = individual male DIO mouse of the 2 mg/kg group
[8] = individual male DIO mouse, 2 mg/kg, 2 mg/kg
[9] = individual male DIO mouse, group dosed 2 mg/kg, 2 mg/kg

In the case of CC1=C(O)C(=O)C=C2C1=CC=C1[C@@]2(C)CC[C@@]2(C)[C@@H]3C[C@](C)(C(=O)O)CC[C@]3(C)CC[C@]12C [ERX1000-4, Celastrol], the “area under the curve (AUC) for cumulative body weight change” value [1] is reported as “statistically significant decreases”, the “area under the curve (AUC) for daily body weight change” value [1] is reported as “statistically significant decreases” and the “cumulative body weight change” value [1] is reported as “statistically significant decreases”. The “Individual Body Weight, PRED 11” value [1, 7] was 35.9 g and 35.1 g and 37.3 g and 34.5 g and 37.5 g, the “Individual Body Weight, PRED 12” value [1, 7] was 35.2 g and 33.5 g and 37.4 g and 35.5 g and 37.3 g and the “Individual Body Weight, PRED 13” value [1, 7] was 35.1 g and 32.5 g and 37.7 g and 34.0 g and 36.0 g. The “Individual Body Weight, PRED 14” value [1, 7] was 35.5 g and 32.9 g and 37.9 g and 34.6 g and 37.2 g, the “Individual Body Weight, DSNG 1” value [1, 8] was 34.6 g and 30.8 g and 37.0 g and 33.5 g and 34.9 g and the “Individual Body Weight, DSNG 2” value [1, 8] was 34.4 g and 30.8 g and 36.4 g and 33.5 g and 35.0 g. The cumulative food intake [2] was “statistically significant decreases” and the “glucose value percent change” value [3] was “Statistically significant changes; also recorded: statistically significant decreases”.
For CC(=O)N[C@]1(C)CC[C@]2(C)CC[C@]3(C)C4=CC=C5C(=CC(=O)C(O)=C5C)[C@]4(C)CC[C@@]3(C)[C@@H]2C1 [ERX1168], the solubility at 1 h [4] was 5.05 µM (≈ 2.34 µg/mL), the “area under the curve (AUC) for cumulative body weight change” value [1] was “statistically significant decreases” and the “area under the curve (AUC) for daily body weight change” value [1] was “statistically significant decreases”. For the same compound, the “cumulative body weight change” value [1] was “statistically significant decreases”, the “Individual Body Weight” value ([1]; 2 mg/kg, Phase Day DSNG 3) was 30.7 g and 37.3 g and 34.4 g and 30.5 g and 28.3 g and the “Individual Body Weight” value ([1]; 2 mg/kg, Phase Day DSNG 4) was 30.0 g and 37.5 g and 34.2 g and 29.1 g and 28.9 g. The “Individual Body Weight” value ([1]; 2 mg/kg, Phase Day DSNG 5) was 29.2 g and 36.1 g and 33.2 g and 28.8 g and 28.0 g, the “Individual Body Weight” value ([1]; 2 mg/kg, Phase Day DSNG 6) was 28.4 g and 33.9 g and 31.6 g and 27.0 g and 26.7 g and the “Individual Body Weight” value ([1]; 2 mg/kg, Phase Day DSNG 7) was 28.9 g and 32.3 g and 30.7 g and 27.0 g and 27.3 g. The “Individual Body Weight” value ([1]; 2 mg/kg, Phase Day DSNG 8) was 28.7 g and 32.7 g and 29.5 g and 27.7 g and 26.9 g, the “Body weight, Mean” value ([1]; DIO mice, 2 mg/kg, phase DSNG, Day 7) was 29.2 g and the “Body weight, Mean” value ([1]; DIO mice, 2 mg/kg, phase DSNG, Day 8) was 29.1 g. The “Body weight, Mean” value ([1]; DIO mice, 2 mg/kg, phase DSNG, Day 9) was 30.0 g, the “Body weight, Mean” value ([1]; DIO mice, 2 mg/kg, phase DSNG, Day 10) was 29.2 g and the “Body weight, Mean” value ([1]; DIO mice, 2 mg/kg, phase DSNG, Day 11) was 29.2 g. For the same compound, the “Body weight, Mean” value ([1]; Day 1, DSNG phase, 2 mg/kg, N=5) was 34.5 g, the “Body weight, Mean” value ([1]; Day 2, DSNG phase, 2 mg/kg, N=5) was 34.0 g and the “Body weight, Mean” value ([1]; Day 3, DSNG phase, 2 mg/kg, N=5) was 32.2 g. For the same compound, the “Body weight, Mean” value ([1]; Day 4, DSNG phase, 2 mg/kg, N=5) was 31.9 g, the “Body weight, Mean” value ([1]; Day 5, DSNG phase, 2 mg/kg, N=5) was 31.1 g and the “Body weight, Mean” value ([1]; Day 6, DSNG phase, 2 mg/kg, N=5) was 29.5 g. It also gave a change in vivo at 2 mg/kg ([1]; 24 h, Day 1, DSNG phase, 2 mg/kg, difference of group mean) of 1%, a change in vivo at 2 mg/kg ([1]; 48 h, Day 2, DSNG phase, 2 mg/kg, difference of group mean) of -1% and a change in vivo at 2 mg/kg ([1]; 72 h, Day 3, DSNG phase, 2 mg/kg, difference of group mean) of -5%. It also gave a change in vivo at 2 mg/kg ([1]; 96 h, Day 4, DSNG phase, 2 mg/kg, difference of group mean) of -4%, a change in vivo at 2 mg/kg ([1]; 120 h, Day 5, DSNG phase, 2 mg/kg, difference of group mean) of -8% and a change in vivo at 2 mg/kg ([1]; 144 h, Day 6, DSNG phase, 2 mg/kg, difference of group mean) of -12%. For the same compound, the change in vivo at 2 mg/kg ([1]; 168 h, DIO mice, 2 mg/kg, phase DSNG, Day 7, difference of group mean from vehicle group 1) was -13%, the change in vivo at 2 mg/kg ([1]; 192 h, DIO mice, 2 mg/kg, phase DSNG, Day 8, difference of group mean from vehicle group 1) was -14% and the change in vivo at 2 mg/kg ([1]; 216 h, DIO mice, 2 mg/kg, phase DSNG, Day 9, difference of group mean from vehicle group 1) was -10%. For the same compound, the change in vivo at 2 mg/kg ([1]; 240 h, DIO mice, 2 mg/kg, phase DSNG, Day 10, difference of group mean from vehicle group 1) was -13%, the change in vivo at 2 mg/kg ([1]; 264 h, DIO mice, 2 mg/kg, phase DSNG, Day 11, difference of group mean from vehicle group 1) was -14% and the “Individual Body Weight, DSNG 1” value [1, 8] was 33.1 g and 39.5 g and 36.9 g and 31.9 g and 31.1 g. For the same compound, the “Individual Body Weight, DSNG 2” value [1, 8] was 32.5 g and 40.4 g and 36.2 g and 31.2 g and 29.9 g, the “Individual Body Weight, PRED 11” value [1, 9] was 35.6 g and 39.3 g and 37.3 g and 35.3 g and 33.0 g and the “Individual Body Weight, PRED 12” value [1, 9] was 35.2 g and 40.3 g and 37.2 g and 33.1 g and 31.0 g. For the same compound, the “Individual Body Weight, PRED 13” value [1, 9] was 35.0 g and 40.4 g and 37.2 g and 32.5 g and 30.6 g, the “Individual Body Weight, PRED 14” value [1, 9] was 35.1 g and 41.2 g and 37.5 g and 33.3 g and 32.1 g and the “area under the curve (AUC) for cumulative food intake” value [2] was “statistically significant decreases”. The cumulative food intake [2] was “statistically significant decreases”, the “glucose value percent change” value [3] was “Statistically significant changes; also recorded: statistically significant decreases” and the “Individual Animal Fate: Fate Status” value [5] was “Scheduled Sacrifice”.
For Cc1c(O)c(O)cc2c1C(=O)C=C1[C@@]2(C)CC[C@@]2(C)[C@@H]3C[C@](C)(C(=O)O)CC[C@]3(C)CC[C@]12C [ERX1030], the Oral bioavailability [6] was “−”.
